Patent US9328112B2, “Tetracyclic CDK9 kinase inhibitors” (AbbVie Inc., priority 2014, dated 2016)
Where a name gives a salt, the structure may show the parent alone.

Assays:
CDK9/Cyclin T1 = CDK9/Cyclin T1 (Homo sapiens (Human), UniProt P50750); experiment: CDK9 enzyme assay (LANCE ULight TR-FRET kinase assay); assay type: biochemical; conditions: 1000 μM ATP, 100 nM ULight MBP, kinase reaction 1 hour
In short: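 TR-FRET readout (ex 320 nm; em 615/665 nm) after 1 h detection with 0.5 nM europium anti-phospho-MBP antibody in 20 mM EDTA stop buffer. Preceding 1 h kinase step: CDK9/Cyclin T1, ULight-MBP substrate at 100 nM, ATP at 1000 μM, compound pre-diluted in DMSO then buffer.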

H929 cells = experiment: Cell viability assay (Cell TiterGlo); assay type: cell-based; conditions: Homo sapiens, NCI-H929, 24 hours at 37° C., Cell TiterGlo luminescence
Method: The cell viability assay was performed using H929 cells. Cells were seeded in 96-well plates at 10,000 cells/well and, after overnight incubation, treated with compounds in a dose response of 3-fold dilutions from 10 μM to 0.005 μM ([…], 0.1% final DMSO concentration). After 24 hours at 37° C., cell viability was measured using Cell TiterGlo reagent (Promega) with a luminescence reader.

Sequence of CDK9/Cyclin T1 (P50750 whole entry): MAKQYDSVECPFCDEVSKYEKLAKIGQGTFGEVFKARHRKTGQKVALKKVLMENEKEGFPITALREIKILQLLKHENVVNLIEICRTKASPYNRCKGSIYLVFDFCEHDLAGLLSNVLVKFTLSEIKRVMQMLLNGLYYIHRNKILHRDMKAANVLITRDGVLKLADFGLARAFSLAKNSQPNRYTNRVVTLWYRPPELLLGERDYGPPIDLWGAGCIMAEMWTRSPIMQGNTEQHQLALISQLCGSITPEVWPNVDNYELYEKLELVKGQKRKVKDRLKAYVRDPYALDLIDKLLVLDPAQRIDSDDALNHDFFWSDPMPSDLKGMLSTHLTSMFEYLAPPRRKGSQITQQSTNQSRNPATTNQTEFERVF
Sequence of CDK9/Cyclin T1 (O60563 whole entry partner): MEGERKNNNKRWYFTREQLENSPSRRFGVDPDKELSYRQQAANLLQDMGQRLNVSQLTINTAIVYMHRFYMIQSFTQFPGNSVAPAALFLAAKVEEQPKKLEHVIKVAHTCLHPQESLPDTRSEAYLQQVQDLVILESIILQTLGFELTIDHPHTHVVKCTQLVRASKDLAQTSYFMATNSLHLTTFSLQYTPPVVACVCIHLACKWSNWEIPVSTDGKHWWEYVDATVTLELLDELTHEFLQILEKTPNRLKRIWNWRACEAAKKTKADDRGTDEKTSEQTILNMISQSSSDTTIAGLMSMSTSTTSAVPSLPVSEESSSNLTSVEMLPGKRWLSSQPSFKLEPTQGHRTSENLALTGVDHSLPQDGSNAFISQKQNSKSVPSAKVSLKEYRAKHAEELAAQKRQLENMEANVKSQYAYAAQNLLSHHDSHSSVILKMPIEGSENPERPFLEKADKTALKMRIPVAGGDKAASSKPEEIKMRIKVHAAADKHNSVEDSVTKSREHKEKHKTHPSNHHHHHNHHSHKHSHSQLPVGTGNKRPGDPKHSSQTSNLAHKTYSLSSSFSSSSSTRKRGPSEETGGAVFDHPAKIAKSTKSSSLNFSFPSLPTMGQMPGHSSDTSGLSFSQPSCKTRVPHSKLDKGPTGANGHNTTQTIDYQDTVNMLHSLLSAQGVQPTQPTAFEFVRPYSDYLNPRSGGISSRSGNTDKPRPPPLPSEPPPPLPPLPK

Structure (SMILES)	IC50 (CDK9/Cyclin T1) [nM]	IC50 (H929 cells) [nM]
CN1Cc2c(C3=CCN([C@H]4CC[C@H](C(=O)O)CC4)CC3)[nH]c3nccc(c23)-c2cc(F)ccc21 [Example 141, trans-4-[4-(10-fluoro-7-methyl-6,7-dihydro-4H-3,4,7-triazadibenzo[cd,f]azulen-5-yl)-3,6-dihydropyridin-1(2H)-yl]cyclohexanecarboxylic acid]	51	30
CNC(=O)N1C2C=C(c3[nH]c4nccc5c4c3CN(C)c3ccc(F)cc3-5)CC1CCC2 (stereo not shown) [Example 100, 3-(10-fluoro-7-methyl-6,7-dihydro-4H-3,4,7-triazadibenzo[cd,f]azulen-5-yl)-N-methyl-9-azabicyclo[3.3.1]non-2-ene-9-carboxamide]	83	1200
CN(C)C(=O)CN1CC=C(c2[nH]c3nccc4c3c2CN(C)c2ccccc2-4)CC1 [Example 162, N,N-dimethyl-2-[4-(7-methyl-6,7-dihydro-4H-3,4,7-triazadibenzo[cd,f]azulen-5-yl)-3,6-dihydropyridin-1(2H)-yl]acetamide]	115	21
CCC1c2c(C3=CCN(S(C)(=O)=O)CC3)[nH]c3nccc(c23)-c2cc(F)ccc2N1C (stereo not shown) [Example 11, 6-ethyl-10-fluoro-7-methyl-5-[1-(methylsulfonyl)-1,2,3,6-tetrahydropyridin-4-yl]-6,7-dihydro-4H-3,4,7-triazadibenzo[cd,f]azulene]	120	32
CN1Cc2c(C3=CC4CCCC(C3)N4CC(=O)O)[nH]c3nccc(c23)-c2cc(F)ccc21 (stereo not shown) [Example 108, [3-(10-fluoro-7-methyl-6,7-dihydro-4H-3,4,7-triazadibenzo[cd,f]azulen-5-yl)-9-azabicyclo[3.3.1]non-2-en-9-yl]acetic acid]	110	1200
CN(CC(O)CO)C(=O)CN1C2C=C(c3[nH]c4nccc5c4c3CN(C)c3ccc(F)cc3-5)CC1CCC2 (stereo not shown) [Example 107, N-(2,3-dihydroxypropyl)-2-[3-(10-fluoro-7-methyl-6,7-dihydro-4H-3,4,7-triazadibenzo[cd,f]azulen-5-yl)-9-azabicyclo[3.3.1]non-2-en-9-yl]-N-methylacetamide]	110	110
CN1Cc2c(C3=CCN(CC(=O)N4CC(O)C4)CC3)[nH]c3ncc(F)c(c23)-c2cc(F)ccc21 [Example 72, 2-[4-(1,10-difluoro-7-methyl-6,7-dihydro-4H-3,4,7-triazadibenzo[cd,f]azulen-5-yl)-3,6-dihydropyridin-1(2H)-yl]-1-(3-hydroxyazetidin-1-yl)ethanone]	79	21
CC[C@H]1c2c(C3=CCN([C@H]4C[C@@H](C(=O)O)C4)CC3)[nH]c3nccc(c23)-c2cc(F)ccc2N1C [Example 187, cis-3-{4-[(6S)-6-ethyl-10-fluoro-7-methyl-6,7-dihydro-4H-3,4,7-triazadibenzo[cd,f]azulen-5-yl]-3,6-dihydropyridin-1(2H)-yl}cyclobutanecarboxylic acid]	110	15
CN(CC(O)CO)C(=O)CN1CC2C=C(c3[nH]c4nccc5c4c3CN(C)c3ccc(F)cc3-5)CC2C1 (stereo not shown) [Example 85, N-(2,3-dihydroxypropyl)-2-[5-(10-fluoro-7-methyl-6,7-dihydro-4H-3,4,7-triazadibenzo[cd,f]azulen-5-yl)-3,3a,4,6a-tetrahydrocyclopenta[c]pyrrol-2(1H)-yl]-N-methylacetamide]	99	250
CCCN1Cc2c(C3=CCN(S(C)(=O)=O)CC3)[nH]c3nccc(c23)-c2cc(F)ccc21 [Example 6, 10-fluoro-5-[1-(methylsulfonyl)-1,2,3,6-tetrahydropyridin-4-yl]-7-propyl-6,7-dihydro-4H-3,4,7-triazadibenzo[cd,f]azulene]	340	2100
Fc1ccc2c(c1)-c1ccnc3[nH]c(C4=CCNCC4)c(c13)CO2 [Example 14, 10-fluoro-5-(1,2,3,6-tetrahydropyridin-4-yl)-4,6-dihydro-7-oxa-3,4-diazadibenzo[cd,f]azulene]	20	180
CN1Cc2c(C3=C[C@@H]4COC(=O)N4CC3)[nH]c3nccc(c23)-c2cc(F)c(F)cc21 [Example 125, (8aR)-7-(9,10-difluoro-7-methyl-6,7-dihydro-4H-3,4,7-triazadibenzo[cd,f]azulen-5-yl)-1,5,6,8a-tetrahydro[1,3]oxazolo[3,4-a]pyridin-3-one]	54	300
CN1Cc2c(C3=CCCNC3)[nH]c3nccc(c23)-c2cc(F)ccc21 [Example 93, 10-fluoro-7-methyl-5-(1,2,5,6-tetrahydropyridin-3-yl)-6,7-dihydro-4H-3,4,7-triazadibenzo[cd,f]azulene]	46	110
CN(C)C(=O)CN1CC=C(c2[nH]c3nccc4c3c2CN(C)c2ccc(F)cc2-4)C(C)(C)C1 [Example 114, 2-[4-(10-fluoro-7-methyl-6,7-dihydro-4H-3,4,7-triazadibenzo[cd,f]azulen-5-yl)-3,3-dimethyl-3,6-dihydropyridin-1(2H)-yl]-N,N-dimethylacetamide]	870	3400
CN1Cc2c(C3=CCN(CC(=O)N(C)C4CC(O)C4)CC3)[nH]c3ncc(F)c(c23)-c2cc(F)ccc21 (stereo not shown) [Example 109, 2-[4-(1,10-difluoro-7-methyl-6,7-dihydro-4H-3,4,7-triazadibenzo[cd,f]azulen-5-yl)-3,6-dihydropyridin-1(2H)-yl]-N-(3-hydroxycyclobutyl)-N-methylacetamide]	43	10
CCC1c2c(C3=CCNCC3)[nH]c3nccc(c23)-c2cc(F)ccc2N1C (stereo not shown) [Example 9, 6-ethyl-10-fluoro-7-methyl-5-(1,2,3,6-tetrahydropyridin-4-yl)-6,7-dihydro-4H-3,4,7-triazadibenzo[cd,f]azulene dihydrochloride]	48	10
CN1Cc2c(C3=C[C@H](CO)NCC3)[nH]c3nccc(c23)-c2cc(F)ccc21 [Example 154, [(2R)-4-(10-fluoro-7-methyl-6,7-dihydro-4H-3,4,7-triazadibenzo[cd,f]azulen-5-yl)-1,2,5,6-tetrahydropyridin-2-yl]methanol]	28	56
CN1Cc2c(C3=CCN([C@H]4CC[C@H](CC(=O)O)CC4)CC3)[nH]c3ncc(F)c(c23)-c2cc(F)ccc21 [Example 167, {trans-4-[4-(1,10-difluoro-7-methyl-6,7-dihydro-4H-3,4,7-triazadibenzo[cd,f]azulen-5-yl)-3,6-dihydropyridin-1(2H)-yl]cyclohexyl}acetic acid]	67	10
O=C(O)CC1CCC(N2CC=C(c3[nH]c4nccc5c4c3COc3ccc(F)cc3-5)CC2)CC1 (stereo not shown) [Example 165, {4-[4-(10-fluoro-4,6-dihydro-7-oxa-3,4-diazadibenzo[cd,f]azulen-5-yl)-3,6-dihydropyridin-1(2H)-yl]cyclohexyl}acetic acid]	390	970
CN1Cc2c(C3=C[C@@H](CO)NCC3)[nH]c3nccc(c23)-c2cc(F)ccc21 [Example 155, [(2S)-4-(10-fluoro-7-methyl-6,7-dihydro-4H-3,4,7-triazadibenzo[cd,f]azulen-5-yl)-1,2,5,6-tetrahydropyridin-2-yl]methanol]	41	39
CC(C)[C@@H](NC1CC=C(c2[nH]c3nccc4c3c2CN(C)c2ccc(F)cc2-4)CC1)C(=O)O (stereo partly drawn) [Example 29, N-[4-(10-fluoro-7-methyl-6,7-dihydro-4H-3,4,7-triazadibenzo[cd,f]azulen-5-yl)cyclohex-3-en-1-yl]-D-valine]	46	94
CN(CC(O)CO)C(=O)CN1CC=C(c2[nH]c3nccc4c3c2CN(C)c2ccc(F)cc2-4)C(C)(C)C1 (stereo not shown) [Example 119, N-(2,3-dihydroxypropyl)-2-[4-(10-fluoro-7-methyl-6,7-dihydro-4H-3,4,7-triazadibenzo[cd,f]azulen-5-yl)-3,3-dimethyl-3,6-dihydropyridin-1(2H)-yl]-N-methylacetamide]	1300	2400
CN1Cc2c(C3=CCN(CC(=O)N(C)C4CC(O)C4)CC3)[nH]c3nccc(c23)-c2cc(F)c(F)cc21 (stereo not shown) [Example 148, 2-[4-(9,10-difluoro-7-methyl-6,7-dihydro-4H-3,4,7-triazadibenzo[cd,f]azulen-5-yl)-3,6-dihydropyridin-1(2H)-yl]-N-(3-hydroxycyclobutyl)-N-methylacetamide]	53	25
CN1Cc2c(C3=CC4CCCC(C3)N4S(C)(=O)=O)[nH]c3nccc(c23)-c2cc(F)ccc21 (stereo not shown) [Example 99, 10-fluoro-7-methyl-5-[9-(methylsulfonyl)-9-azabicyclo[3.3.1]non-2-en-3-yl]-6,7-dihydro-4H-3,4,7-triazadibenzo[cd,f]azulene]	400	2600
CN1c2ccc(F)cc2-c2ccnc3[nH]c(C4=CCNCC4)c(c23)C1C(=O)O (stereo not shown) [Example 33, 10-fluoro-7-methyl-5-(1,2,3,6-tetrahydropyridin-4-yl)-6,7-dihydro-4H-3,4,7-triazadibenzo[cd,f]azulene-6-carboxylic acid]	540	150
CN(CCO)C(=O)CN1CCC(c2[nH]c3nccc4c3c2CN(C)c2ccc(F)cc2-4)CC1 [Example 27, 2-[4-(10-fluoro-7-methyl-6,7-dihydro-4H-3,4,7-triazadibenzo[cd,f]azulen-5-yl)piperidin-1-yl]-N-(2-hydroxyethyl)-N-methylacetamide]	91	210
